{"source": "patent US10870684B2", "about": "“Disintegrin variants and pharmaceutical uses thereof” (National Cheng Kung University, priority 2014, dated 2020)", "tested_on": "platelet aggregation that is mediated by αIIbβ3", "assay": "Inhibition of ADP-induced platelet aggregation in platelet-rich plasma", "format": "cell-based", "settings": "PRP", "protocol": "Disintegrin (Rho) variants were also tested for their ability to inhibit platelet aggregation that is mediated by αIIbβ3. Venous blood (9 parts) samples from healthy donors who had not received any medication for at least two weeks were collected in 3.8% sodium citrate (1 part). Blood samples were centrifuged at 150×g for 10 min to obtain platelet-rich plasma (PRP) and allowed to stand for 5 min, and PRP was collected. The platelet-poor plasma (PPP) was prepared from the remaining blood by centrifuging at 2000×g for 25 min. The PPP platelet count was measured on a hematology analyzer and diluted to 250,000 platelets/μl. A solution of 190 μl of PRP and 10 μl of either Rho or PBS buffer were incubated for 5 min in a Hema Tracer 601 aggregometer at 37° C. Ten microliters of 200 μM adenosine diphosphate (ADP) were further added to monitor the response of platelet aggregation by light transmission."}
{"substance": "rhodostomin [Rho wild-type, reference compound]", "values": [{"measurement": "IC50", "value": 83.2, "unit": "nM"}]}
